Patent US20170151333A1, “NOVEL CATIONIC LIPIDS AND METHODS OF USE THEREOF” (PROTIVA BIOTHERAPEUTICS, INC., priority 2010, published 2017)

Tested on: Liver ApoB mRNA
Assay: Liver ApoB mRNA knockdown by 1:57 SNALP containing cationic lipid and ApoB siRNA in mice (branched DNA QuantiGene assay)
Format: in vivo
Conditions: Balb/c mice; for ApoB knockdown relative to PBS control (%): 1:57 SNALP containing the cationic lipid with ApoB siRNA, liver ApoB:GAPD mRNA, 48 h, n = 3; for ApoB silencing activity compared to a SNALP formulation containing the C2K benchmark cationic lipid: 1:57 SNALP with ApoB siRNA, administered at the same dose as C2K SNALP
Source text: In some embodiments, siRNA molecules were encapsulated into serum-stable nucleic acid-lipid particles (SNALP) composed of the following lipids: (1) the lipid conjugate PEG2000-C-DMA (3-N-[(-methoxypoly(ethylene glycol)2000)carbamoyl]-1,2-dimyristyloxypropylamine); (2) one or more cationic lipids or salts thereof (e.g., cationic lipids of Formula I of the invention and/or other cationic lipids described herein); (3) the phospholipid DPPC (1,2-dipalmitoyl-sn-glycero-3-phosphocholine) (Avanti Polar Lipids; Alabaster, Ala.); and (4) synthetic cholesterol (Sigma-Aldrich Corp.; St. Louis, Mo.) in the molar ratio 1.4:57.1:7.1:34.3, respectively. In other words, siRNA molecules were encapsulated into SNALP of the following “1:57” formulation: 1.4% PEG2000-C-DMA; 57.1% cationic lipid; 7.1% DPPC; and 34.3% cholesterol. It should be understood that the 1:57 formulation is a target formulation, and that the amount of lipid (both cationic and non-cationic) present and the amount of lipid conjugate present in the formulation may vary. Typically, in the 1:57 formulation, the amount of cationic lipid will be 57.1 mol %±5 mol %, and the amount of lipid conjugate will be 1.4 mol %±0.5 mol %, with the balance of the 1:57 formulation being made up of non-cationic lipid (e.g., phospholipid, cholesterol, or a mixture of the two).
SNALP formulations were administered by IV injection at 0.033 mg/kg or at 0.05 mg/kg into Balb/c mice (n=3 per group). Liver ApoB mRNA levels were evaluated at 48 hours after SNALP administration by a branched DNA assay (QuantiGene assay) to assess ApoB mRNA relative to the housekeeping gene GAPDH.

SMILES	ApoB knockdown relative to PBS control (%) (IV 0.033 mg/kg)	ApoB knockdown relative to PBS control (%) (IV 0.05 mg/kg)	ApoB silencing activity compared to a SNALP formulation containing the C2K benchmark cationic lipid
CCCCC/C=C\C/C=C\CCCCCCCC(=O)C(CCCCCCC/C=C\C/C=C\CCCCC)OC(=O)CCCN(C)C (centres unmarked) [Compound 23, (6Z,9Z,27Z,30Z)-19-oxohexatriaconta-6,9,27,30-tetraen-18-yl 4-(dimethylamino)butanoate]	−33		
CCCCC/C=C\C/C=C\CCCCCCCCC1(CCCCCCCC/C=C\C/C=C\CCCCC)OCC(CCN(C)C)O1 (centres unmarked) [Compound C2K, 2,2-dilinoleyl-4-(2-dimethylaminoethyl)-[1,3]-dioxolane, reference compound]	−51	−66	
CCCCC/C=C\C/C=C\CCCCCCCCCC(CCCCCCC/C=C\C/C=C\CCCCC)OC(=O)N(CCCCCC)CCCN(C)C (centres unmarked) [Compound 27, (6Z,9Z,28Z,31Z)-heptatriaconta-6,9,28,31-tetraen-18-yl 3-(dimethylamino)propyl(hexyl)carbamate]	−66		unexpectedly improved ApoB silencing activity
CCCCC/C=C\C/C=C\CCCCCCCCC(CCCCCCCC/C=C\C/C=C\CCCCC)OC(=O)CCCN(C)C [Compound 1, (6Z,9Z,28Z,31Z)-heptatriaconta-6,9,28,31-tetraen-19-yl 4-(dimethylamino)butanoate]	−71	−81	unexpectedly improved ApoB silencing activity
CCCCC/C=C\C/C=C\CCCCCCCCC(CCCCCCCC/C=C\C/C=C\CCCCC)OC(=O)N(C)CCCN(C)CC [Compound 30, (6Z,9Z,28Z,31Z)-heptatriaconta-6,9,28,31-tetraen-19-yl (3-(ethyl(methyl)amino)propyl)(methyl)carbamate]		−65	
CCCCC/C=C\C/C=C\CCCCCCCCCC(CCCCCCC/C=C\C/C=C\CCCCC)OC(=O)N(CC)CCN(C)C (centres unmarked) [Compound 29, (6Z,9Z,28Z,31Z)-heptatriaconta-6,9,28,31-tetraen-18-yl 2-(dimethylamino)ethyl(ethyl)carbamate]		−59	
CCCCCC1CC1CC1CC1CC1CC1CCCCCC(CCCCCC1CC1CC1CC1CC1CC1CCCCC)OC(=O)CCCN(C)C (centres unmarked) [Compound 9, CP-γ-LenMC3]	−54		
CCCCC/C=C\C/C=C\CCCCCCCC(O)C(CCCCCCC/C=C\C/C=C\CCCCC)OC(=O)CCN(C)C (centres unmarked) [Compound 22, (6Z,9Z,27Z,30Z)-19-hydroxyhexatriaconta-6,9,27,30-tetraen-18-yl 3-(dimethylamino)propanoate]	−30		
CCC1CC1CC1CC1CC1CC1CCCCCCCCC(CCCCCCCCC1CC1CC1CC1CC1CC1CC)OC(=O)CCCN(C)C (centres unmarked) [Compound 5]	−56		
CCCCC/C=C\C/C=C\CCCCCCCCC(CCCCCCCC/C=C\C/C=C\CCCCC)OC(=O)N(C)CCN(C)C [Compound 11, MC2MC]		−54	
CC/C=C\C/C=C\C/C=C\CCCCCCCCC(CCCCCCCC/C=C\C/C=C\C/C=C\CC)OCCCCN(C)C [Compound 35, 4-((3Z,6Z,9Z,28Z,31Z,34Z)-heptatriaconta-3,6,9,28,31,34-hexaen-19-yloxy)-N,N-dimethylbutan-1-amine]	−78		unexpectedly improved ApoB silencing activity
CC(C)CCCC(C)CCCC(C)CCCC(C)CCC(CCC(C)CCCC(C)CCCC(C)CCCC(C)C)OC(=O)CCCCN(C)C (centres unmarked) [Compound 18, Phytanyl-MC4]		−46	
CCCCC/C=C\C/C=C\CCCCCCCCC(CCCCCCCC/C=C\C/C=C\CCCCC)OC(=O)N(C)CCCN(CC)CC [Compound 31, (6Z,9Z,28Z,31Z)-heptatriaconta-6,9,28,31-tetraen-19-yl (3-(diethylamino)propyl)(methyl)carbamate]		−62	
CC/C=C\C/C=C\C/C=C\CCCCCCCCC(CCCCCCCC/C=C\C/C=C\C/C=C\CC)OC(=O)CCCN(C)C [Compound 4, LenMC3]	−78		unexpectedly improved ApoB silencing activity
CC/C=C\C/C=C\C/C=C\CCCCCCCCC(CCCCCCCC/C=C\C/C=C\C/C=C\CC)OCCCN(C)C [Compound 34, 3-((3Z,6Z,9Z,28Z,31Z,34Z)-heptatriaconta-3,6,9,28,31,34-hexaen-19-yloxy)-N,N-dimethylpropan-1-amine]	−41		
CCCCC/C=C/C/C=C/CCCCCCCCC(CCCCCCCC/C=C/C/C=C/CCCCC)OC(=O)CCCN(C)C [Compound 40, (6E,9E,28E,31E)-heptatriaconta-6,9,28,31-tetraen-19-yl 4-(dimethylamino)butanoate]		−58	
CCCCC/C=C\C/C=C\C/C=C\CCCCCC(CCCCC/C=C\C/C=C\C/C=C\CCCCC)OC(=O)CCCN(C)C [Compound 8, γ-LenMC3]	−71		unexpectedly improved ApoB silencing activity
CC(C)CCCC(C)CCCC(C)CCCC(C)CCC(CCC(C)CCCC(C)CCCC(C)CCCC(C)C)OC(=O)CCCN(C)C (centres unmarked) [Compound 17, Phytanyl-MC3]		−14	
CCCCC/C=C\C/C=C\CCCCCCCCC(CCCCCCCC/C=C/C/C=C/CCCCC)OC(=O)CCCN(C)C (centres unmarked) [Compound 25, (6Z,9Z,28E,31E)-heptatriaconta-6,9,28,31-tetraen-19-yl 4-(dimethylamino)butanoate]		−66	
CC/C=C\CCCN(CCCN(C)C)C(=O)OC(CCCCCCC/C=C\C/C=C\CCCCC)CCCCCCCCC/C=C\C/C=C\CCCCC (centres unmarked) [Compound 28, (6Z,9Z,28Z,31Z)-heptatriaconta-6,9,28,31-tetraen-18-yl 3-(dimethylamino)propyl((Z)-hept-4-enyl)carbamate]	−68		unexpectedly improved ApoB silencing activity
CCCCC/C=C\C/C=C\CCCCCCCCC(CCCCCCCC/C=C\C/C=C\CCCCC)SC(=O)CCCN(C)C [Compound 20, S-(6Z,9Z,28Z,31Z)-heptatriaconta-6,9,28,31-tetraen-19-yl 4 (dimethylamino) butanethioate]		−50	
CCCCC/C=C\C/C=C\CCCCCCCCC(CCCCCCCC/C=C\C/C=C\CCCCC)OCCCCN(C)C [Compound 15, MC4 Ether]		−77	unexpectedly improved ApoB silencing activity
CCC/C=C\C/C=C\CCCCCCCCC(CCCCCCCC/C=C\C/C=C\CCCCC)OC(=O)N(C)CCCN(C)C (centres unmarked) [Compound 10, MC3MC]	−50		
CCCCC/C=C\C/C=C\CCCCCCCCC(CCCCCCCC/C=C\C/C=C\CCCCC)OCCCN(C)C [Compound 13, 3-((6Z,9Z,28Z,31Z)-heptatriaconta-6,9,28,31-tetraen-19-yloxy)-N,N-dimethylpropan-1-amine]	−69		unexpectedly improved ApoB silencing activity
CCCCCC/C=C/C=C\CCCCCCCCC(CCCCCCCC/C=C\C=C\CCCCCC)OCCCN(C)C [Compound 41, 3-((7E,9Z,28Z,30E)-heptatriaconta-7,9,28,30-tetraen-19-yloxy)-N,N-dimethylpropan-1-amine]	−52		
